{"source": "paper PMC11676693", "about": "“Population Pharmacokinetic and Pharmacodynamic Study of Palbociclib in Children and Young Adults with Recurrent, Progressive, or Refractory Brain Tumors” (Pharmaceutics, 2024)", "key": {"[1]": {"system": "proliferating neutrophils in the bone marrow compartment (ANC)", "experiment": "Population pharmacodynamic model of ANC (neutrophil dynamics)", "format": "in vivo, children and young adults", "description": "(§1) A complete blood count (CBC) with differential was performed pre-therapy, weekly during course 1, and then weekly during courses 2 to 26. The CBC provided platelet and absolute neutrophil counts (ANCs).\n(§2) The model describing the ANC and platelet dynamics has been previously described. The model for the ANC consisted of a bone marrow compartment with proliferating neutrophils, three transient compartments that represent the maturation process of the neutrophils from blasts to circulating neutrophils, and a circulating neutrophil compartment. The model included the negative feedback effects of endogenous G-CSF, which affected the growth rate of proliferating cells in a manner inversely proportional to the concentration of circulating neutrophils. We assumed that palbociclib only affected the proliferating neutrophils in the bone marrow compartment. We used a similar structural model for platelet dynamics. The model describing the neutrophil dynamics is shown in Equations (1)–(5) and Figure S1. (1) NPBM/dt=kinKM/KM+NcircIC50n/IC50n+Cpalblociclibn−kbpNPBM (2) dNT1/dt=kbpNPBM−NT1 (3) dNT2/dt=kbpNT1−NT2 (4) dNT3/dt=kbpNT2−NT3 (5) dNcirc/dt=kpbNT3−koutNcirc\nThe model parameters were as follows: NPBM: proliferating bone marrow stem cells; NT1, NT2, and NT3: transient compartments describing the maturation phases of the neutrophils; Ncirc: circulating neutrophils. Note that we were only able to observe this compartment. The model parameters were defined as follows: kin (1/days): the stem cell proliferation rate; kbp (1/days): the transition rate between transient compartments (the mean transition time from the bone marrow to the circulating neutrophils is 4/kbp); kout (1/days): the elimination rate of circulating neutrophils; KM (10^3/µL): the half-saturation effect of the G-CSF negative feedback; IC50 (nM) and n; the half-saturation effect and Hill coefficient of the palbociclib effects on the bone marrow; and Cpalbociclib (nM): the concentration of palbociclib in the plasma. Prior to treatment, the system was assumed to be steady-state, where Ncirc0 was the steady-state circulating neutrophil level. The following relationship between the model parameters was needed for the system to maintain steady state prior to treatment (Equation (6)). (6) KM=kbp/kin−kbpNcirc0\nFor this relationship to be positive, kin > kpb. To ensure this requirement, we defined kpb = fkbp·kin where fkbp ∈ [0, 1] and estimated fkbp. In addition, the initial conditions for the system at steady state (i.e., the steady-state solution to the system in the absence of the drug) are (Equation (7)) (7) kout/kbpNcirc0, kout/kbpNcirc0, kout/kbpNcirc0, kout/kbpNcirc0, Ncirc0\nThe parameters for the pharmacodynamic model were estimated using nonlinear mixed-effects modeling with the SAEM algorithm as implemented in the Monolix® software version 2023R1 (Lixoft, Antony, France). The palbociclib pharmacokinetics were fixed to each individual’s post hoc estimated parameters (as determined above). The inter-individual and inter-occasion variability were assumed to be log-normally distributed for all parameters except fkbp, which was assumed to be a logit distribution, so its value will be between 0 and 1. A proportional residual error model was used to quantify the unexplained variability of the model. Error terms were assumed to be normally distributed."}, "[2]": {"conditions": "in vivo", "description": "The patients included in this palbociclib population pharmacokinetic/pharmacodynamic analysis were treated in the phase I clinical trial PBTC-042 (NCT02255461), which evaluated single-agent oral palbociclib therapy in children and young adults with recurrent, progressive, or refractory brain tumors. Details of this clinical trial have been reported elsewhere. In adults treated with palbociclib, myelosuppression has been the main dose-limiting toxicity (DLT) reported, and the toxicity is greater in more heavily pretreated patients. Thus, patients in this pediatric trial were divided into two strata: stratum I included patients who were not heavily pretreated, while stratum II included heavily pretreated patients. The starting dosage for stratum I was 50 mg/m^2, with planned dose escalations to 75 mg/m^2 and 95 mg/m^2. The planned starting dosage for stratum II was one dosage level below the MTD for stratum I. The Institutional Review Board approved this trial and written informed consent was obtained from patients, parents, or legal guardians before the onset of any study procedures. Assent was obtained from patients as appropriate based on local institutional guidelines.\nPharmacokinetic studies of oral palbociclib (PD-0332991) were performed on course 1, day 1 and day 21 to evaluate the population pharmacokinetics of palbociclib. On day 2 of course 1, the palbociclib dose was held. On day 1 of course 1, palbociclib single-dose serial blood samples were drawn pre-dose and 0.5, 1, 2, 4, 8 (±1), 24 (±4), and 48 (±4) hours (immediately prior to the day 3 dose) after the oral dose. On day 21 of course 1, palbociclib steady-state serial blood samples were collected pre-dose and 1, 2, 4, 8 (±1), and 24 (±4) hours (immediately prior to the day 22 dose) after the dose.\nAt each time point, whole blood (2 mL) was collected in K2EDTA tubes, spun to plasma within one hour of collection, and stored at −20 °C until analysis. Palbociclib plasma concentrations were measured using a validated liquid chromatography–mass spectrometric assay method with a lower limit of quantitation (LLOQ) of 1 ng/mL [14].\nPalbociclib serum concentration–time data from course 1, day 1 and day 21 were analyzed using nonlinear mixed-effects modeling implemented in Monolix software version 2023R1 (Lixoft, Antony, France) using the Stochastic Approximation Expectation Maximization (SAEM) algorithm. Inter-individual and inter-occasion variabilities were assumed to be log-normally distributed. A proportional residual error model was used to quantify the unexplained variability of the model. Error terms were assumed to be normally distributed. A one-compartment model with first-order absorption, the absorption lag time, and first-order elimination was used. Specifically, the PK parameters estimated included the absorption lag time (Tlag), absorption rate constant (ka), apparent oral volume (V/F), and apparent oral clearance (CL/F), where F was the bioavailability, which was not identifiable given only oral dosing was used. The inter-individual variability was estimated for all parameters. Additionally, the inter-occasion variability was estimated for the CL/F. The palbociclib dosage (i.e., the palbociclib dosage normalized to the patient body surface area (BSA)) was used as the model input. Data below the limit of quantitation (BLQ) were censored according to the Beal method M3 [17], as implemented in Monolix. […]"}, "[3]": {"conditions": "cited from earlier work"}, "[4]": {"set-up": "method as in PMID 37553297", "conditions": "mean (range), 12 children, cited from earlier work"}, "[5]": {"system": "platelets (PLT)", "experiment": "Population pharmacodynamic model of platelet (PLT) dynamics", "format": "in vivo, children and young adults", "description": "as §1\nas §2, with “The model describing the neutrophil dynamics is shown in Equations (1)–(5) and Figure S1. (1) NPBM/dt=kinKM/KM+NcircIC50n/IC50n+Cpalblociclibn−kbpNPBM (2) dNT1/dt=kbpNPBM−NT1 (3) dNT2/dt=kbpNT1−NT2 (4) dNT3/dt=kbpNT2−NT3 (5) dNcirc/dt=kpbNT3−koutNcirc” left out\nThe parameters for the pharmacodynamic model were estimated using nonlinear mixed-effects modeling with the SAEM algorithm as implemented in the Monolix® software version 2023R1 (Lixoft, Antony, France). The palbociclib pharmacokinetics were fixed to each individual’s post hoc estimated parameters (as determined above). […] A proportional residual error model was used to quantify the unexplained variability of the model. […]"}, "[6]": {"conditions": "median (5th–95th percentile), individual model estimates, first two courses"}}, "note": "Like-named read-outs stand apart in the source and are kept apart here."}
{"molecule": "CC(=O)c1c(C)c2cnc(Nc3ccc(N4CCNCC4)cn3)nc2n(C2CCCC2)c1=O", "note": "[palbociclib]", "values": [{"measurement": "IC50", "setting": "[1]; Homo sapiens, Neutrophil, read-out: IC50 (half-saturation effect of palbociclib on the bone marrow)", "result": 384, "unit": "nM"}, {"measurement": "cumulative nature of decreases in ANCs", "setting": "[1]; courses 3 and 4 predicted from courses 1 and 2", "result": "not cumulative"}, {"measurement": "time individuals had grade 3 or greater neutropenia", "setting": "[1]; median (5th–95th percentile) (abstract)", "result": "4 (0, 21) days"}, {"measurement": "ANC nadir", "setting": "[1]; median (5th–95th percentile), first two courses", "result": "1.0 (0.4, 3.3) × 10^3/µL"}, {"measurement": "time below an ANC of 0.5 × 10^3/µL (grade 4 neutropenia)", "setting": "[1]; [6]", "result": "0 (0, 11) days/course"}, {"measurement": "time below an ANC of 1.0 × 10^3/µL (grade 3 neutropenia)", "setting": "[1]; [6]", "result": "4 (0, 21) days/course"}, {"measurement": "time below an ANC of 1.5 × 10^3/µL (grade 2 neutropenia)", "setting": "[1]; [6]", "result": "15 (0, 35) days/course"}, {"measurement": "Inter-patient variability (IIV) of CL/F", "setting": "[2]; human", "result": 0.24}, {"measurement": "absorption rate constant", "setting": "[2]; human", "result": 0.48, "unit": "h⁻¹"}, {"measurement": "decrease of inter-patient variability of CL/F with inclusion of AST", "setting": "[2]; human", "result": 10, "unit": "%"}, {"measurement": "fold lower apparent oral clearance", "setting": "[2]; human, po", "result": 2, "unit": "fold"}, {"measurement": "effect of concomitant drugs as covariates on CL/F", "setting": "[2]", "result": "None of the concomitant drugs considered as covariates were significant"}, {"measurement": "apparent oral clearance", "setting": "[3]; Courlet, 45 women with metastatic breast cancer, two-compartment model", "result": 67, "unit": "L/h"}, {"measurement": "apparent oral clearance", "setting": "[3]; Courlet, 45 women with metastatic breast cancer", "result": 39, "unit": "L/h/m^2"}, {"measurement": "apparent oral clearance", "setting": "[3]; Royer, adults, 124 patients", "result": 34, "unit": "L/h/m^2"}, {"measurement": "apparent oral clearance", "setting": "[3]; Royer, adults, therapeutic drug monitoring data, 124 patients", "result": 58, "unit": "L/h"}, {"measurement": "apparent oral clearance", "setting": "[3]; adults, 143 patients", "result": 34, "unit": "L/h/m^2"}, {"measurement": "apparent oral clearance", "setting": "[3]; adults, therapeutic drug monitoring data, 143 patients", "result": 57, "unit": "L/h"}, {"measurement": "increase of apparent oral clearance", "setting": "[3]; taken under fasting conditions along with concomitant proton pump inhibitors", "result": 56, "unit": "%"}, {"measurement": "steady state apparent oral clearance", "setting": "[4]; capsule and liquid formulations", "result": "40.4 (21.1–102.0) L/h/m^2"}, {"measurement": "half-life", "setting": "[4]", "result": "27.9 (4.5–86.8) hours"}, {"measurement": "IC50", "setting": "[5]; Homo sapiens, Platelet, read-out: IC50 (half-saturation effect of palbociclib on the bone marrow)", "result": 559, "unit": "nM"}, {"measurement": "individuals with grade 1 (<100 ×) or greater thrombocytopenia", "setting": "[5]; individual model estimates, first two courses, 31 individuals", "result": "three"}]}
